# Source: US20250051338A1, “TYK2 DEGRADERS AND USES THEREOF” (Kymera Therapeutics, Inc., priority 2021, published 2025)
# Target: T1, TYK2 (Homo sapiens, UniProt P29597)
# Assay: TYK2 degradation MSD assay in human PBMC cells
# Assay type: cell-based
# Set-up: endogenous in cells; host or cells: human PBMC
# Conditions: 4 to 24 hours incubation, read-out: TYK2 MSD DC50 rating in human PBMC
# In short: (§1)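 MSD electrochemiluminescence readout of residual TYK2 in RIPA lysates after 4–24 h compound exposure at 37° C. Dosing: 9 concentrations, 1:3 steps, top 1 to 10 μM. DC50 fitted by four-parameter inhibitor vs. response regression.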
# T1 sequence (P29597 whole entry): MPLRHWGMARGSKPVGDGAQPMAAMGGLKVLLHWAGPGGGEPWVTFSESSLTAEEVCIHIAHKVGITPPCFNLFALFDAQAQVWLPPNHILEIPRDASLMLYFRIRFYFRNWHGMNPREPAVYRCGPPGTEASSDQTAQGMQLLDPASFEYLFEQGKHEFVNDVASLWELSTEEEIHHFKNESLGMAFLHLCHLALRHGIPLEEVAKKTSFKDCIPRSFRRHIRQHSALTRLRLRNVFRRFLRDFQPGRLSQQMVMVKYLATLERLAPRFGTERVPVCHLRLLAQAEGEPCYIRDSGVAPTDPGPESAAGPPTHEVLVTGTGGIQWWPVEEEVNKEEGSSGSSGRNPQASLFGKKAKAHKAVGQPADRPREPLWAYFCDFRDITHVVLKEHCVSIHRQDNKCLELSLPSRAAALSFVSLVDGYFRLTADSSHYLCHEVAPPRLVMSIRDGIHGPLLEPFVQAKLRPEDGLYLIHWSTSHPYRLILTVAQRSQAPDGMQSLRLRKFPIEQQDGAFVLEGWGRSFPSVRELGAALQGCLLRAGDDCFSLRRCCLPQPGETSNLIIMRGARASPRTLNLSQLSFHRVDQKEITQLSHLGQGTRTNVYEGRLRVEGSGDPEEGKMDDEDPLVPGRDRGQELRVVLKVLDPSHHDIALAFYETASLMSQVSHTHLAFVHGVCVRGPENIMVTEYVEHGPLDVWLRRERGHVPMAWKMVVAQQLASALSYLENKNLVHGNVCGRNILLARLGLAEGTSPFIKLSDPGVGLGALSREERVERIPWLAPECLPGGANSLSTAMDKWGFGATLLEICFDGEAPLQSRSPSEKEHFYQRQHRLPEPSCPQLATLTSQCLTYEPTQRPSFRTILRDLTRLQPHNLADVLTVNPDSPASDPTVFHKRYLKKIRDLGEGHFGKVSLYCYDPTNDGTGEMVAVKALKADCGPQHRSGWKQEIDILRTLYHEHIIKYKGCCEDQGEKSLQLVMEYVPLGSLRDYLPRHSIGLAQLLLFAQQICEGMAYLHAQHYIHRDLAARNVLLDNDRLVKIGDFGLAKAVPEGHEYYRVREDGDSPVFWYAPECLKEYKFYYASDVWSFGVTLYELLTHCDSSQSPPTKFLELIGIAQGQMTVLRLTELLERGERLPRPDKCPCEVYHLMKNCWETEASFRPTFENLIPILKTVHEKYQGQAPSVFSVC
row,Structure (SMILES),DC50
1,CNC(=O)c1cnc(Nc2ccc(C(=O)NCCCCc3cccc4c3n(C)c(=O)n4C3CCC(=O)NC3=O)cn2)cc1Nc1ccccc1S(C)(=O)=O (stereo not drawn) [Example K190],1 to 10 nM
2,CNC(=O)c1cnc(Nc2ccc(C(=O)NCCCCc3cccc4c3n(C)c(=O)n4C3CCC(=O)NC3=O)cn2)cc1Nc1ccccc1OC (stereo not drawn) [Example K191],1 to 10 nM
3,CNC(=O)c1cnc(Nc2ccc(C(=O)NCCCCc3cccc4c3n(C)c(=O)n4C3CCC(=O)NC3=O)cn2)cc1Nc1ccccc1 (stereo not drawn) [Example K192],1 to 10 nM
4,CNC(=O)c1cnc(Nc2cc(C(=O)NCCCCCCc3cccc4c3n(C)c(=O)n4C3CCC(=O)NC3=O)ccn2)cc1Nc1cccc(-c2ncc(F)cn2)c1OC (stereo not drawn) [Example K193],1 to 10 nM
5,CNC(=O)c1cnc(Nc2ccc(CN3CCN(Cc4ccc5c(c4)n(C)c(=O)n5C4CCC(=O)NC4=O)CC3)cn2)cc1Nc1cccc(-c2ncc(F)cn2)c1OC (stereo not drawn) [Example K194],< 1 nM
6,CNC(=O)c1cnc(Nc2ccc(C(=O)N(C)C3CCN(c4cccc5c4n(C)c(=O)n5C4CCC(=O)NC4=O)CC3)cn2)cc1Nc1ccccc1OC (stereo not drawn) [Example K195],> 100 nM
7,CNC(=O)c1cnc(Nc2ccc(N3CCN(c4ccc5c(c4)n(C)c(=O)n5C4CCC(=O)NC4=O)CC3)cn2)cc1Nc1cccc(-c2ncc(F)cn2)c1OC (stereo not drawn) [Example K196],< 1 nM
8,CNC(=O)c1cnc(Nc2ccc(C3CCN(Cc4ccc5c(c4)n(C)c(=O)n5C4CCC(=O)NC4=O)CC3)cn2)cc1Nc1cccc(-c2ncc(F)cn2)c1OC (stereo not drawn) [Example K197],< 1 nM

# Further lines, results first:
row,DC50,Structure (SMILES)
1,< 1 nM,CNC(=O)c1cnc(Nc2ccc(CN3CC(c4cccc5c4n(C)c(=O)n5C4CCC(=O)NC4=O)C3)cn2)cc1Nc1cccc(-c2ncc(F)cn2)c1OC (stereo not drawn) [Example K198]
2,1 to 10 nM,CNC(=O)c1cnc(Nc2ccc(CN3CC(c4ccc5c(c4)n(C)c(=O)n5C4CCC(=O)NC4=O)C3)cn2)cc1Nc1cccc(-c2ncc(F)cn2)c1OC (stereo not drawn) [Example K199]
3,> 100 nM,Cn1c(=O)n(C2CCC(=O)NC2=O)c2ccc(CCOCCOCCNc3cc(Nc4cccn(-c5ccccn5)c4=O)nn4c(C(=O)N[C@@H]5C[C@@H]5F)cnc34)cc21 (stereo partly drawn) [Example K201]
4,> 100 nM,Cn1c(=O)n(C2CCC(=O)NC2=O)c2ccc(CCOCCOCCOCCOCCNc3cc(Nc4cccn(-c5ccccn5)c4=O)nn4c(C(=O)NC5C[C@@H]5F)cnc34)cc21 (stereo partly drawn) [Example K202]
5,> 100 nM,Cn1c(=O)n(C2CCC(=O)NC2=O)c2ccc(CCCCNc3cc(Nc4cccn(-c5ccccn5)c4=O)nn4c(C(=O)N[C@@H]5C[C@@H]5F)cnc34)cc21 (stereo partly drawn) [Example K204]
6,> 100 nM,Cn1c(=O)n(C2CCC(=O)NC2=O)c2cccc(CCCCNc3cc(Nc4cccn(-c5ccccn5)c4=O)nn4c(C(=O)N[C@@H]5C[C@@H]5F)cnc34)c21 (stereo partly drawn) [Example K205]
7,> 100 nM,Cn1c(=O)n(C2CCC(=O)NC2=O)c2cccc(CCCCCCNc3cc(Nc4cccn(-c5ccccn5)c4=O)nn4c(C(=O)N[C@@H]5C[C@@H]5F)cnc34)c21 (stereo partly drawn) [Example K206]
8,> 100 nM,Cn1c(=O)n(C2CCC(=O)NC2=O)c2ccc(CCCCCCNc3cc(Nc4cccn(-c5ccccn5)c4=O)nn4c(C(=O)N[C@@H]5C[C@@H]5F)cnc34)cc21 (stereo partly drawn) [Example K207]
9,> 100 nM,Cn1c(=O)n(C2CCC(=O)NC2=O)c2ccc(CCCCCCCCNc3cc(Nc4cccn(-c5ccccn5)c4=O)nn4c(C(=O)N[C@@H]5C[C@@H]5F)cnc34)cc21 (stereo partly drawn) [Example K208]

# Target: T1, TYK2
# Assay: TYK2 degradation MSD assay in EBV-B cells
# Assay type: cell-based
# Set-up: endogenous in cells; host or cells: EBV-B cells
# Conditions: 4 to 24 hours incubation, read-out: TYK2 MSD DC50 rating in EBV-B
# In short: as §1
row,Structure (SMILES),DC50
1,CNC(=O)c1cnc(Nc2ccc(C(=O)NCCCCc3cccc4c3n(C)c(=O)n4C3CCC(=O)NC3=O)cn2)cc1Nc1ccccc1S(C)(=O)=O (stereo not drawn) [Example K190],10 to 100 nM
2,CNC(=O)c1cnc(Nc2ccc(C(=O)NCCCCc3cccc4c3n(C)c(=O)n4C3CCC(=O)NC3=O)cn2)cc1Nc1ccccc1OC (stereo not drawn) [Example K191],> 100 nM
3,CNC(=O)c1cnc(Nc2ccc(C(=O)NCCCCc3cccc4c3n(C)c(=O)n4C3CCC(=O)NC3=O)cn2)cc1Nc1ccccc1 (stereo not drawn) [Example K192],> 100 nM
4,CNC(=O)c1cnc(Nc2cc(C(=O)NCCCCCCc3cccc4c3n(C)c(=O)n4C3CCC(=O)NC3=O)ccn2)cc1Nc1cccc(-c2ncc(F)cn2)c1OC (stereo not drawn) [Example K193],1 to 10 nM
5,CNC(=O)c1cnc(Nc2ccc(CN3CCN(Cc4ccc5c(c4)n(C)c(=O)n5C4CCC(=O)NC4=O)CC3)cn2)cc1Nc1cccc(-c2ncc(F)cn2)c1OC (stereo not drawn) [Example K194],> 100 nM
6,CNC(=O)c1cnc(Nc2ccc(C(=O)N(C)C3CCN(c4cccc5c4n(C)c(=O)n5C4CCC(=O)NC4=O)CC3)cn2)cc1Nc1ccccc1OC (stereo not drawn) [Example K195],1 to 10 nM
7,CNC(=O)c1cnc(Nc2ccc(N3CCN(c4ccc5c(c4)n(C)c(=O)n5C4CCC(=O)NC4=O)CC3)cn2)cc1Nc1cccc(-c2ncc(F)cn2)c1OC (stereo not drawn) [Example K196],> 100 nM
8,CNC(=O)c1cnc(Nc2ccc(C3CCN(Cc4ccc5c(c4)n(C)c(=O)n5C4CCC(=O)NC4=O)CC3)cn2)cc1Nc1cccc(-c2ncc(F)cn2)c1OC (stereo not drawn) [Example K197],> 100 nM

# Second part, the compound after the results:
row,DC50,Structure (SMILES)
1,> 100 nM,CNC(=O)c1cnc(Nc2ccc(CN3CC(c4cccc5c4n(C)c(=O)n5C4CCC(=O)NC4=O)C3)cn2)cc1Nc1cccc(-c2ncc(F)cn2)c1OC (stereo not drawn) [Example K198]
2,> 100 nM,CNC(=O)c1cnc(Nc2ccc(CN3CC(c4ccc5c(c4)n(C)c(=O)n5C4CCC(=O)NC4=O)C3)cn2)cc1Nc1cccc(-c2ncc(F)cn2)c1OC (stereo not drawn) [Example K199]
3,> 100 nM,Cn1c(=O)n(C2CCC(=O)NC2=O)c2ccc(CCOCCOCCNc3cc(Nc4cccn(-c5ccccn5)c4=O)nn4c(C(=O)N[C@@H]5C[C@@H]5F)cnc34)cc21 (stereo partly drawn) [Example K201]
4,> 100 nM,Cn1c(=O)n(C2CCC(=O)NC2=O)c2ccc(CCOCCOCCOCCOCCNc3cc(Nc4cccn(-c5ccccn5)c4=O)nn4c(C(=O)NC5C[C@@H]5F)cnc34)cc21 (stereo partly drawn) [Example K202]
5,> 100 nM,Cn1c(=O)n(C2CCC(=O)NC2=O)c2ccc(CCCCNc3cc(Nc4cccn(-c5ccccn5)c4=O)nn4c(C(=O)N[C@@H]5C[C@@H]5F)cnc34)cc21 (stereo partly drawn) [Example K204]
6,> 100 nM,Cn1c(=O)n(C2CCC(=O)NC2=O)c2cccc(CCCCNc3cc(Nc4cccn(-c5ccccn5)c4=O)nn4c(C(=O)N[C@@H]5C[C@@H]5F)cnc34)c21 (stereo partly drawn) [Example K205]
7,> 100 nM,Cn1c(=O)n(C2CCC(=O)NC2=O)c2cccc(CCCCCCNc3cc(Nc4cccn(-c5ccccn5)c4=O)nn4c(C(=O)N[C@@H]5C[C@@H]5F)cnc34)c21 (stereo partly drawn) [Example K206]
8,> 100 nM,Cn1c(=O)n(C2CCC(=O)NC2=O)c2ccc(CCCCCCNc3cc(Nc4cccn(-c5ccccn5)c4=O)nn4c(C(=O)N[C@@H]5C[C@@H]5F)cnc34)cc21 (stereo partly drawn) [Example K207]
9,> 100 nM,Cn1c(=O)n(C2CCC(=O)NC2=O)c2ccc(CCCCCCCCNc3cc(Nc4cccn(-c5ccccn5)c4=O)nn4c(C(=O)N[C@@H]5C[C@@H]5F)cnc34)cc21 (stereo partly drawn) [Example K208]

# Target: T1, TYK2
# Assay: TYK2 degradation MSD assay in OCI-LY10 cells
# Assay type: cell-based
# Set-up: endogenous in cells; host or cells: EBV-B cells
# Conditions: 4 to 24 hours incubation, read-out: TYK2 MSD DC50 rating in OCI-LY10
# In short: as §1
row,Structure (SMILES),DC50
1,CNC(=O)c1cnc(Nc2ccc(C(=O)NCCCCc3cccc4c3n(C)c(=O)n4C3CCC(=O)NC3=O)cn2)cc1Nc1ccccc1S(C)(=O)=O (stereo not drawn) [Example K190],> 100 nM
2,CNC(=O)c1cnc(Nc2ccc(C(=O)NCCCCc3cccc4c3n(C)c(=O)n4C3CCC(=O)NC3=O)cn2)cc1Nc1ccccc1OC (stereo not drawn) [Example K191],1 to 10 nM
3,CNC(=O)c1cnc(Nc2ccc(C(=O)NCCCCc3cccc4c3n(C)c(=O)n4C3CCC(=O)NC3=O)cn2)cc1Nc1ccccc1 (stereo not drawn) [Example K192],1 to 10 nM
4,CNC(=O)c1cnc(Nc2cc(C(=O)NCCCCCCc3cccc4c3n(C)c(=O)n4C3CCC(=O)NC3=O)ccn2)cc1Nc1cccc(-c2ncc(F)cn2)c1OC (stereo not drawn) [Example K193],> 100 nM
5,CNC(=O)c1cnc(Nc2ccc(CN3CCN(Cc4ccc5c(c4)n(C)c(=O)n5C4CCC(=O)NC4=O)CC3)cn2)cc1Nc1cccc(-c2ncc(F)cn2)c1OC (stereo not drawn) [Example K194],> 100 nM
6,CNC(=O)c1cnc(Nc2ccc(C(=O)N(C)C3CCN(c4cccc5c4n(C)c(=O)n5C4CCC(=O)NC4=O)CC3)cn2)cc1Nc1ccccc1OC (stereo not drawn) [Example K195],> 100 nM
7,CNC(=O)c1cnc(Nc2ccc(N3CCN(c4ccc5c(c4)n(C)c(=O)n5C4CCC(=O)NC4=O)CC3)cn2)cc1Nc1cccc(-c2ncc(F)cn2)c1OC (stereo not drawn) [Example K196],< 1 nM
8,CNC(=O)c1cnc(Nc2ccc(C3CCN(Cc4ccc5c(c4)n(C)c(=O)n5C4CCC(=O)NC4=O)CC3)cn2)cc1Nc1cccc(-c2ncc(F)cn2)c1OC (stereo not drawn) [Example K197],> 100 nM

# More lines, now with the values ahead:
row,DC50,Structure (SMILES)
1,> 100 nM,CNC(=O)c1cnc(Nc2ccc(CN3CC(c4cccc5c4n(C)c(=O)n5C4CCC(=O)NC4=O)C3)cn2)cc1Nc1cccc(-c2ncc(F)cn2)c1OC (stereo not drawn) [Example K198]
2,> 100 nM,CNC(=O)c1cnc(Nc2ccc(CN3CC(c4ccc5c(c4)n(C)c(=O)n5C4CCC(=O)NC4=O)C3)cn2)cc1Nc1cccc(-c2ncc(F)cn2)c1OC (stereo not drawn) [Example K199]
3,> 100 nM,Cn1c(=O)n(C2CCC(=O)NC2=O)c2ccc(CCOCCOCCNc3cc(Nc4cccn(-c5ccccn5)c4=O)nn4c(C(=O)N[C@@H]5C[C@@H]5F)cnc34)cc21 (stereo partly drawn) [Example K201]
4,> 100 nM,Cn1c(=O)n(C2CCC(=O)NC2=O)c2ccc(CCOCCOCCOCCOCCNc3cc(Nc4cccn(-c5ccccn5)c4=O)nn4c(C(=O)NC5C[C@@H]5F)cnc34)cc21 (stereo partly drawn) [Example K202]
5,> 100 nM,Cn1c(=O)n(C2CCC(=O)NC2=O)c2ccc(CCCCNc3cc(Nc4cccn(-c5ccccn5)c4=O)nn4c(C(=O)N[C@@H]5C[C@@H]5F)cnc34)cc21 (stereo partly drawn) [Example K204]
6,> 100 nM,Cn1c(=O)n(C2CCC(=O)NC2=O)c2cccc(CCCCNc3cc(Nc4cccn(-c5ccccn5)c4=O)nn4c(C(=O)N[C@@H]5C[C@@H]5F)cnc34)c21 (stereo partly drawn) [Example K205]
7,> 100 nM,Cn1c(=O)n(C2CCC(=O)NC2=O)c2cccc(CCCCCCNc3cc(Nc4cccn(-c5ccccn5)c4=O)nn4c(C(=O)N[C@@H]5C[C@@H]5F)cnc34)c21 (stereo partly drawn) [Example K206]
8,> 100 nM,Cn1c(=O)n(C2CCC(=O)NC2=O)c2ccc(CCCCCCNc3cc(Nc4cccn(-c5ccccn5)c4=O)nn4c(C(=O)N[C@@H]5C[C@@H]5F)cnc34)cc21 (stereo partly drawn) [Example K207]
9,> 100 nM,Cn1c(=O)n(C2CCC(=O)NC2=O)c2ccc(CCCCCCCCNc3cc(Nc4cccn(-c5ccccn5)c4=O)nn4c(C(=O)N[C@@H]5C[C@@H]5F)cnc34)cc21 (stereo partly drawn) [Example K208]
